PMC4978154, “Phase I metabolites of mephedrone display biological activity as substrates at monoamine transporters” (British Journal of Pharmacology, 2016)
“And” between values parts separate entries of the source, which are not always exact repeats. Equal values may be shown once.

Experiments:
Format in all cases: cell-based
hDAT [1] = biological target: T1, hDAT (Homo sapiens, UniProt Q01959); assay: Transporter release (superfusion) assay in HEK293 cells expressing hDAT
T1 construct: expressed in transfected cells
Procedure: (§1) The generation of HEK293 cells stably expressing the human isoforms of DAT (hDAT) and NET (hNET) was carried out as described previously (Scholze et al., 2002). For SERT, the human isoform (hSERT) was cloned in frame with yellow fluorescent protein (Schmid et al., 2001). The generation of a stable cell line was performed as described by Hilber and colleagues (Hilber et al., 2005). HEK293 cells were maintained in humidified atmosphere (5% CO2, 37°C) in DMEM, supplemented with 10% heat‐inactivated FBS and penicillin (100 u 100 mL^−1) and streptomycin (100 μg 100 mL^−1). Selection pressure was maintained by adding geneticin (50 μg·mL^−1) to the cell culture media.
(§2) Superfusion experiments were performed as described previously (Scholze et al., 2002). Briefly, HEK293 cells expressing the desired transporter were seeded at a density of 40 000 cells per well onto poly‐D‐lysine‐coated 5 mm glass cover slips in 96‐well plates 24 h prior to the experiment. Cells were preloaded with [^3H]‐MPP^+ (0.1 μM, hDAT and hNET) or [^3H]‐5‐HT (0.4 μM, hSERT) for 20 min at 37°C in a final volume of 100 μL per well. Subsequently, glass coverslips were transferred into small superfusion chambers (volume of 200 μL) and superfused with KHB at 25°C with a superfusion rate of 0.7 mL·min^−1 for 40 min to establish a stable basal efflux. After washout, the collection of 2‐min fractions was initiated. After the first three basal fractions, monensin (10 μM) or solvent was added for four fractions. Consequently, the cells were challenged with test drugs (10 μM) for five fractions in the presence or absence of monensin. Finally, the cells were lysed in 1% SDS to determine the total radioactivity. Radioactivity per fraction was assessed by a liquid scintillation counter and expressed as fractional release, that is, the percentage of released ^3H in relation to total ^3H present at the beginning of the fraction (Sitte et al., 2000). For analysis, release was expressed as AUC.
(§3) Calculations were performed using Microsoft Excel® 2010 (Microsoft Corporation, Redmond, WA, USA) and GRAPHPAD PRISM 5.0. (GraphPad Software Inc., La Jolla, CA, USA). IC50 values for uptake inhibition and EC50 values for release were determined by nonlinear regression fits. Release data expressed as AUC were analysed by one‐way ANOVA followed by Bonferroni's multiple comparison test. Microdialysis and locomotor data were analysed by two‐way ANOVA (drug treatment × time) followed by Bonferroni's test. The effect of monensin treatment on basal efflux of tritiated substrate was analysed with the Mann–Whitney test. P values less than 0.05 (i.e. P < 0.05) were considered significant. The data and statistical analysis comply with the recommendations on experimental design and analysis in pharmacology (Curtis et al., 2015).
Data from uptake inhibition assays cannot distinguish whether test drugs act as non‐transported inhibitors or transportable substrates, which evoke release (Scholze et al., 2000; Sitte et al., 2000; Baumann et al., 2013). Therefore, mephedrone and its metabolites were tested in release assays to further explore their interaction with transporters. The release assays were performed with the same transporter‐expressing HEK293 cell lines described above and used a superfusion system (Sitte et al., 2000). As described previously, efflux of preloaded [^3H]‐MPP^+ or [^3H]‐5‐HT was monitored in the presence or absence of monensin (10 μM) (Scholze et al., 2000). […]

hDAT [2] = biological target: T1, hDAT; assay: Transporter uptake inhibition in HEK293 cells expressing hDAT; conditions: [3H]-MPP+ uptake
Procedure: as §1
(§4) Uptake experiments were conducted as described previously (Sitte et al., 2001) with minor modifications. In brief, HEK293 cells expressing hDAT, hNET or hSERT were seeded into poly‐D‐lysine (PDL) coated 96‐well plates at a density of 40 000 cells per well. The next day, DMEM was aspirated and replaced with Krebs HEPES buffer (KHB, 25 mM HEPES, 120 mM NaCl, 5 mM KCl, 1.2 mM CaCl2, and 1.2 mM MgSO4, 5 mM D‐glucose, pH adjusted to 7.3 with NaOH) (200 μL per well), and cells were pre‐incubated with various concentrations of mephedrone or its metabolites for 5 min (50 μL per well). Subsequently, 0.1 μM of [^3H]‐5‐HT or 0.02 μM of [^3H]‐MPP^+ were added, and uptake was terminated after 1 (hSERT) or 3 min (hDAT, hNET) by washing the cells with 200 μL of ice‐cold KHB. Cells were lysed with 1% SDS, and tritium uptake was determined by scintillation counting. Nonspecific uptake was determined in the presence of 10 μM paroxetine (hSERT) or 10 μM mazindol (hDAT and hNET).
as §3

hNET [3] = biological target: T2, hNET (Homo sapiens, UniProt P23975); assay: Transporter uptake inhibition in HEK293 cells expressing hNET; conditions: [3H]-MPP+ uptake
T2 construct: expressed in transfected cells
Procedure: as §1, §4
as §3, with “GRAPHPAD” left out

hSERT = biological target: T3, hSERT (Homo sapiens, UniProt P31645); assay: Transporter uptake inhibition in HEK293 cells expressing hSERT; conditions: [3H]-5-HT uptake
T3 construct: yellow fluorescent protein (YFP); expressed in transfected cells
Procedure: as §1, §4, §3

hNET [4] = biological target: T2, hNET; assay: Transporter release (superfusion) assay in HEK293 cells expressing hNET; conditions: test drug 10 μM, monensin 10 μM; post hoc Bonferroni
Procedure: as §1
as §2, with “Consequently, the cells were challenged with test drugs (10 μM) for five fractions in the presence or absence of monensin.” left out
Calculations were performed using Microsoft Excel® 2010 (Microsoft Corporation, Redmond, WA, USA) and GRAPHPAD PRISM 5.0. […] IC50 values for uptake inhibition and EC50 values for release were determined by nonlinear regression fits. Release data expressed as AUC were analysed by one‐way ANOVA followed by Bonferroni's multiple comparison test. Microdialysis and locomotor data were analysed by two‐way ANOVA (drug treatment × time) followed by Bonferroni's test. The effect of monensin treatment on basal efflux of tritiated substrate was analysed with the Mann–Whitney test. […]
Data from uptake inhibition assays cannot distinguish whether test drugs act as non‐transported inhibitors or transportable substrates, which evoke release (Scholze et al., 2000; Sitte et al., 2000; Baumann et al., 2013). […] As described previously, efflux of preloaded [^3H]‐MPP^+ or [^3H]‐5‐HT was monitored in the presence or absence of monensin (10 μM) (Scholze et al., 2000). […]

T1 sequence (Q01959 whole entry, the tested form may be a part): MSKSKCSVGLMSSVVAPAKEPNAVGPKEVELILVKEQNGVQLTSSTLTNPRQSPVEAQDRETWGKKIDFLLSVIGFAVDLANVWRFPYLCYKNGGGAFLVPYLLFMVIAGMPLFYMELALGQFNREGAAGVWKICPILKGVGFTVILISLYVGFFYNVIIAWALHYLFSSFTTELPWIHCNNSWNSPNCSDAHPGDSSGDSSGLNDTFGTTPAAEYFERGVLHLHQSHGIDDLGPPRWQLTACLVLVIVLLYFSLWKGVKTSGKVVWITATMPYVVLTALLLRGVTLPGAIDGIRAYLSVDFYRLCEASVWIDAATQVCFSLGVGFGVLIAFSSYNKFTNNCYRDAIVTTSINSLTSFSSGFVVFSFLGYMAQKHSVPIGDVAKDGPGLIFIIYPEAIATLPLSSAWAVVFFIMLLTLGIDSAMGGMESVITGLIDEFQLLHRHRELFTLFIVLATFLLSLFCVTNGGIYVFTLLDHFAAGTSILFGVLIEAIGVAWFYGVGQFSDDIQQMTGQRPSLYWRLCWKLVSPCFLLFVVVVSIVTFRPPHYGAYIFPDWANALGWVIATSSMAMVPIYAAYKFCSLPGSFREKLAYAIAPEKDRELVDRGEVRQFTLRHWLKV
T2 sequence (P23975 whole entry): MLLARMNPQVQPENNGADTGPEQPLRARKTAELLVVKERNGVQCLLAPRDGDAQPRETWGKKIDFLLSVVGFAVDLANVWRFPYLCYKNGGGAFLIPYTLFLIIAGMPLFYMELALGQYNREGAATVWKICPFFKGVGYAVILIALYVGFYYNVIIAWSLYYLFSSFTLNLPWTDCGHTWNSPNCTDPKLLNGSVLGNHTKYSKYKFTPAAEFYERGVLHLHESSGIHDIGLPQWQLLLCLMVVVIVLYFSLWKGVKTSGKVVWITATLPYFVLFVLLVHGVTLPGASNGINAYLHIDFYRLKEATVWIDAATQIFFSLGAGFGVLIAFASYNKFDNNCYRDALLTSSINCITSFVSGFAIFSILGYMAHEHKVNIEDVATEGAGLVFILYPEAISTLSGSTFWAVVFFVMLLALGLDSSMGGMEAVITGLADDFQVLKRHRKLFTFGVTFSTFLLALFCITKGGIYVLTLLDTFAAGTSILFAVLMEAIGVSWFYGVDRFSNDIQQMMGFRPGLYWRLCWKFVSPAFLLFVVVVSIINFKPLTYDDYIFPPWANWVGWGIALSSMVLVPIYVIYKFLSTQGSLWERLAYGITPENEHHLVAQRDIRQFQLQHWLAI
T3 sequence (P31645 whole entry): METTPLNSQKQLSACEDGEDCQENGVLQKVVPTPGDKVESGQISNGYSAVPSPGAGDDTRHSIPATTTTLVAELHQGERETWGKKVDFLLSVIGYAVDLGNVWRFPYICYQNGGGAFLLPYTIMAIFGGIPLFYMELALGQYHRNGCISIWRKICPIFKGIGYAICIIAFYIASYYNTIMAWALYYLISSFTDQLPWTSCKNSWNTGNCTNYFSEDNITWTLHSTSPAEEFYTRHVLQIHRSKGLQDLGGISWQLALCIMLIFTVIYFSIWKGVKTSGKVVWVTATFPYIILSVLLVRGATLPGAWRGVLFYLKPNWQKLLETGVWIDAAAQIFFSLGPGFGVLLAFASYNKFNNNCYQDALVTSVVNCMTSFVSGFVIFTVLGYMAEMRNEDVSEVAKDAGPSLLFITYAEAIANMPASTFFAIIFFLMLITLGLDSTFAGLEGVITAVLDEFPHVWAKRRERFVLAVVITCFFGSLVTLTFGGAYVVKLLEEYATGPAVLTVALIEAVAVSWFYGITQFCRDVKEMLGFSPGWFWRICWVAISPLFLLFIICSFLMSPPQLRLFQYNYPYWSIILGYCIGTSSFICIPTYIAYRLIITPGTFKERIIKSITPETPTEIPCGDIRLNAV

| SMILES | effect of monensin alone on substrate release (basal efflux) (hDAT [1]; monensin 10 μM alone, P < 0.05, Mann–Whitney test) | IC50 (hDAT [2]; IC50 on uptake mediated by hDAT, mean (95% confidence interval)) | efficacy of uptake inhibition at hDAT (hDAT [2]) | IC50 (hNET [3]; IC50 on uptake mediated by hNET, mean (95% confidence interval)) | efficacy of uptake inhibition at hNET (hNET [3]) | IC50 (hSERT; IC50 on uptake mediated by hSERT, mean (95% confidence interval)) | efficacy of uptake inhibition at hSERT (hSERT) | enhancement by monensin of drug-evoked [3H]-MPP+ release at hDAT (AUC) (hDAT [1]; test drug 10 μM, monensin 10 μM, post hoc Bonferroni) | enhancement by monensin of drug-evoked [3H]-MPP+ release at hNET (AUC) (hNET [4]) |
| --- | --- | --- | --- | --- | --- | --- | --- | --- | --- |
| CC[C@@]1([C@@H]2O[C@@H]([C@H]3O[C@@](O)(CO)[C@H](C)C[C@@H]3C)C[C@@H]2C)CC[C@H]([C@]2(C)CC[C@]3(C[C@H](O)[C@@H](C)[C@@H]([C@@H](C)[C@@H](OC)[C@H](C)C(=O)O)O3)O2)O1 [monensin, reference compound] | significant albeit modest increase | – | – | – | – | – | – | – | – |
| CNC(C)C(O)c1ccc(C)cc1.Cl (stereo not drawn) [Dihydromephedrone, 2‐(methylamino)‐1‐(p‐tolyl)propan‐1‐ol hydrochloride] | – | 24 µM | fully efficacious inhibitors of uptake | 24 µM and 23.5 µM | fully efficacious inhibitors of uptake | 65 µM | fully efficacious inhibitors of uptake | not | not |
